Measurements as given in patent US20210253518A1, “KINASE INHIBITOR” (NISSAN CHEMICAL CORPORATION, priority 2018, published 2021).

Assays:
[1] = system: YAP, phosphorylated YAP (Ser127), TAZ; test: Western blotting of YAP, phosphorylated YAP, TAZ in SKOV3 cells (2D and 3D culture); type: cell-based, human; settings: 1, 5, 10 μM, 1 hr, both 2D culture and 3D culture, FIG. 1
Protocol: 2D culture conditions: Human ovarian cancer cell line SKOV3 cultured according to the protocol recommended by DS Pharma Biomedical Co., Ltd. was suspended in McCoy's 5a medium (manufactured by Sigma-Aldrich) containing 15% (v/v) FBS and seeded on a 100 mm plate (manufactured by Corning Incorporated, #430167) at 1,000,000 cells/10 mL and cultured in a CO2 incubator for 24 hr. Successively, k-1:B-1 dissolved in DMSO was added to the culture medium at a final concentration of 1, 5, 10 μM. As the control, the medium without addition and the medium added with DMSO were cultured. After 1 hr, the cells were washed 3 times with ice-cooled phosphate buffered saline (PBS, manufactured by Wako Pure Chemical Industries, Ltd.), 250 μL of RIPA Buffer (manufactured by Wako Pure Chemical Industries, Ltd.) containing a protease inhibitor cocktail (manufactured by Roche) was added, and the cells were lysed with a scraper. […] The supernatant was dispensed, the protein concentration was measured using BCA protein assay kit (manufactured by PIERCE), and then SDS (sodium dodecyl sulfate) gel electrophoresis was performed on the lysate. […] After incubation with a secondary antibody (manufactured by Horseradish peroxidase) linked with an anti-rabbit HRP (horseradish peroxidase) or an anti-mouse HRP, the protein was detected by a chemiluminescence detector (manufactured by BioRad) using ImmunoStar Zeta (manufactured by Wako Pure Chemical Industries, Ltd.).
3D culture conditions: According to the method of patent document (WO 2014/017513), a composition of McCoy's 5a medium (manufactured by Sigma-Aldrich) containing 0.015% (w/v) deacylated gellan gum (KELCOGEL CG-LA, manufactured by Sansho Co., Ltd.), 30 ng/mL human HB-EGF (manufactured by PEPROTECH), and 15% (v/v) FBS was prepared. […] The supernatant was dispensed, the protein concentration was measured using BCA protein assay kit (manufactured by PIERCE), and then SDS gel electrophoresis was performed on the lysate. […]

[2] = system: YAP-regulated genes; test: DNA microarray gene expression in SKOV3 cells; type: cell-based, human; settings: 10 μM
Protocol: According to the method of patent document (WO 2014/017513), a composition of McCoy's 5a medium (manufactured by Sigma-Aldrich) containing 0.015% (w/v) deacylated gellan gum (KELCOGEL CG-LA, manufactured by Sansho Co., Ltd.), 30 ng/mL human HB-EGF (manufactured by PEPROTECH), and 15% (v/v) FBS was prepared. Human ovarian cancer cell line SKOV3 cultured according to the protocol recommended by DS Pharma Biomedical Co., Ltd. was suspended in the medium and seeded on a 6 well plate (manufactured by Corning Incorporated, #3471) at 1,000,000 cells/3.3 mL/well. Successively, k-1:B-1 dissolved in DMSO was added to the cell suspension at a final concentration of 10 μM. After further culturing in a CO2 incubator at 37° C. for 6 or 24 hr, 11 mL of phosphate buffered saline (PBS, manufactured by Sigma-Aldrich Japan) was added to the cell culture medium and the cells were precipitated by a centrifugation treatment (400 G, 3 min). The supernatant was removed, the cells were suspended in PBS (10 mL), and further subjected to a centrifugation treatment (400 G, 5 min) to give cell pellets. Successively, total RNA (ribonucleic acid) was isolated from the obtained cells by using RNAeasy Mini Kit (manufactured by Qiagen). DNA microarray of this RNA was performed by HumanGene 2.0ST Array (manufactured by Affymetrix), and changes in the human gene expression due to the addition of the specific compound were comprehensively analyzed (gene analysis contract service of Kurabo Industries Ltd. was used, product number; GA0312).

CC/C(=N\NC(=O)C(C)Nc1ccccc1)c1ccc(O)c(C)c1O (centres unmarked) [k-1:B-1]
phosphorylation of YAP [1]: suppressed
total TAZ protein amount in the cell [1]: increased
total YAP protein amount in the cell [1]: increased
AMOTL2 expression rate when no addition is 1 ([2]; 6 hr later): 6.92
ANKRD1 expression rate when no addition is 1 ([2]; 6 hr later): 35.3
BIRC2 expression rate when no addition is 1 ([2]; 6 hr later): 1.27
CCND1 expression rate when no addition is 1 ([2]; 6 hr later): 1.63
CTGF expression rate when no addition is 1 ([2]; 6 hr later): 21.4
CYR61 expression rate when no addition is 1 ([2]; 6 hr later): 29.6
TGFB2 expression rate when no addition is 1 ([2]; 6 hr later): 3.63
AMOTL2 expression rate when no addition is 1 ([2]; 24 hr later): 7.89
ANKRD1 expression rate when no addition is 1 ([2]; 24 hr later): 72.1
BIRC2 expression rate when no addition is 1 ([2]; 24 hr later): 1.44
CCND1 expression rate when no addition is 1 ([2]; 24 hr later): 2.01
CTGF expression rate when no addition is 1 ([2]; 24 hr later): 23.2
CYR61 expression rate when no addition is 1 ([2]; 24 hr later): 26.9
TGFB2 expression rate when no addition is 1 ([2]; 24 hr later): 9.84
